Test results published in patent US10894820B2, “Antiretroviral drug targeting human endogenous retrovirus” (priority 2014, dated 2021).

Assays:
[1] = healthy volunteers, Phase 1
[2] = system: HERV-W related transcripts (env and pol mRNA); assay: HERV-W related transcripts levels by RT-qPCR in PBMC of MS patients treated with GNbAC1 (GNC002 Phase IIa trial); type: in vivo, human; details: for all HERV-W transcript levels compared to basal values at inclusion: at the 6th monthly GNbAC1 administration, relative expression to GUS B
Procedure: The present GNC002 Phase IIa clinical trial was performed to assess the safety profile and the pharmacokinetics of GNbAC1 at 2 and 6 mg/kg in 10 MS patients. GNC002 consisted in a 12 months longitudinal study, in which GNbAC1 is administered on a monthly basis.
The present analysis was conducted on samples collected during the first 6 months of GNC002, where HERV-W related transcripts levels were assessed by real time quantitative polymerase chain reaction (RT-qPCR) in peripheral blood mononuclear cells (PBMC) of enrolled patients. HERV-W transcripts are assessed by different primers/probe sets as follows: MSRV-env, HERV-W-UNO, HERV-W-UNO2,
Briefly, the first step consisted in the extraction of total RNA from PBMC samples. Samples were PBMC isolated from blood collected on CPT tubes and frozen in 0.5 ml of DMSO 10% in Foetal Calf Serum. After thawing, PBMC samples were washed with ice-cold PBS and total RNAs were extracted with QIAamp RNeasy Mini Kit. Then, cDNAs were prepared by retro-transcribing all mRNA contained in previously extracted total RNAs. Quantitative PCRs were conducted on these cDNAs, with addition of an internal standard used as an inter-plate calibrator (allowing the standardization of the values throughout an experiment with multiple plates). Results were expressed as the relative expression of the targeted RNA (MSRV/HERV-W), by a ratio to the expression of GUS B RNA, a reference housekeeping gene with a stable expression level in MS population.
The Relative Expression of each targeted RNA within each sample is calculated as follows: Targeted RNA Relative Expression to GUS B=2^(Cq GUS B-Cq targeted RNA) Extraction Yields and Samples Exclusion
For each patient included in the study, PBMCs were isolated from blood sample at Day 1 (inclusion), Day 2, Day 8, Day 15, and Day 29. Afterwards, patients have received 5 additional monthly GNbAC1 administrations and PBMCs were isolated from blood sample before each infusion of antibody. Thus, the following results represent the variation of each HERV-W related transcript over the first 6 months of GNC002 study.
The second GNbAC1 administration occurred at different time points from Day 1, depending on patients. Thus, the mean variation of HERV-W related transcripts was assessed with blood samples collected before each GNbAC1 administration only.

[3] = system: HERV-W Reverse-transcriptase (RT); assay: Western blot of HERV-W pol-encoded Reverse-Transcriptase protein in CH1/CH2 cell cultures treated with GNbAC1 and/or AZT; type: cell-based, Human; details: CH1 and CH2 co-culture; AZT 1 μg/ml, GNbAC1 300 μg/ml; versus mock-treated cells
Procedure: Human CH1 and CH2 cells (1:1) cells were co-cultured for optimizing the growth of CH2 cells and maintained in 6-well plates (CC7672-7506; CytoOne) at a density of 1.10^6 cell/well in IMDM medium (Ser. No. 12/440,053; Lifetech) supplemented with 10% fetal calf serum (Ser. No. 10/270,106; Invitrogen), 1% penicillin/streptomycin (P4333; Sigma) at 37° C. with 5% CO2. Cells were treated with i) AZT (1 μg/ml, A21-69; Sigma), ii) GNbAC1 (300 μg/ml, T950111-A; Polymun), iii) AZT+GNbAC1 or corresponding controls with GNbAC1 buffer [20 mM His, 5% Sucrose (w/v), 0.01% Tween 20 (w/v)].
CH1 and CH2 cells were resuspended in 200 μl of RIPA buffer (R0278, SIGMA) containing cOmplete® anti-phosphatase inhibitor cocktail (04 693 132001; Roche) and 0.05% LPG (326495-22-1; Avanti Polar) at 4° C., incubated for 2 hours at 26° C. on a rotating platform and centrifuged at 10000 g for 20 minutes at 26° C. Supernatant were collected and stored at −20° C.
Protein extracts were diluted (2:1) in 2× Laemmli buffer (Biorad) and heated for 5 minutes at 100° C. before loading. Proteins were separated by 7.5% sodium dodecyl sulfate-polyacrylamide gel electrophoresis (TGX, Biorad). Gels were run for a time period of 15 min at 120 mA in running buffer (Life Technologies). […] Protein of interest was detected with a colometric reaction (Opti 4-CN, Biorad), according to the provided protocol. […]

For “GNbAC1: humanized IgG4 monoclonal antibody directed against HERV-W/MSRV Envelope protein; heavy chain SEQ ID No: 9, light chain SEQ ID No: 10”, the pharmacokinetics [1] was “linear”, the safety profile [1] was “favorable” and the “all HERV-W transcript levels compared to basal values at inclusion” value ([2]; 2 mg/kg cohort, PBMC) was “decrease”. The “all HERV-W transcript levels compared to basal values at inclusion” value ([2]; 6 mg/kg cohort, PBMC) was “confirmed”, the “env mRNA and pol mRNA levels compared to levels before treatment” value ([2]; after three and six months of treatment) was “parallel and progressive decrease” and the “HERV-W pol mRNA level” value ([2]; injected once a month over six months, PBMC, pol qPCR protocol) was “decrease is also marked”. For the same substance, the “HERV-W RT protein expression (Western blot signal)” value [3] was “minor effects”.
